Reference: article PMC8429728, “TNK1 is a ubiquitin-binding and 14-3-3-regulated kinase that can be targeted to block tumor growth” (Nature Communications, 2021)
Like-named read-outs stand apart in the source and are kept apart here.

Assays:
Experiment in all cases: biochemical
Design in all cases: Reaction Biology 371-kinase panel at Km ATP, per cent enzyme activity relative to DMSO, single dose in duplicate
ABL2/ARG = ABL2/ARG (Homo sapiens, UniProt P42684); conditions: duplicate measurements, Km ATP
In short: (§1)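 Percent kinase activity relative to vehicle (DMSO) is reported for a 371-kinase in vitro panel at 300 nM compound; IC50 values derive from variable-slope sigmoidal fits with the lower plateau fixed at 0.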

CAMK2a = CAMK2a (Homo sapiens, UniProt Q9UQM7); conditions: duplicate measurements, Km ATP
In short: as §1

CAMK2g = CAMK2g (Homo sapiens, UniProt Q13555); conditions: duplicate measurements, Km ATP
In short: as §1

CDK19/cyclin C = CDK19/cyclin C (Homo sapiens, UniProt Q9BWU1); conditions: duplicate measurements, Km ATP
In short: as §1

CTK/MATK = CTK/MATK (Homo sapiens, UniProt P42679); conditions: duplicate measurements, Km ATP
In short: as §1

DDR1 = DDR1 (Homo sapiens, UniProt Q08345); conditions: duplicate measurements, Km ATP
In short: as §1

EPHA6 = EPHA6 (Homo sapiens, UniProt Q9UF33); conditions: duplicate measurements, Km ATP
In short: as §1

FES/FPS = FES/FPS (Homo sapiens, UniProt P07332); conditions: duplicate measurements, Km ATP
In short: as §1

FLT1/VEGFR1 = FLT1/VEGFR1 (Homo sapiens, UniProt P17948); conditions: duplicate measurements, Km ATP
In short: as §1

LIMK2 = LIMK2 (Homo sapiens, UniProt P53671); conditions: duplicate measurements, Km ATP
In short: as §1

MAPKAPK2 = MAPKAPK2 (Homo sapiens, UniProt P49137); conditions: duplicate measurements, Km ATP
In short: as §1

MEKK6 = biological target: T1, MEKK6 (Homo sapiens, UniProt O95382); conditions: duplicate measurements, Km ATP
T1 construct: gene MAP3K6
In short: as §1

MINK/MINK1 = MINK/MINK1 (Homo sapiens, UniProt Q8N4C8); conditions: duplicate measurements, Km ATP
In short: as §1

PAK2 = PAK2 (Homo sapiens, UniProt Q13177); conditions: duplicate measurements, Km ATP; read-out: % Enzyme Activity (relative to DMSO controls) / TP-0005801 (0.3µM) / Data 1
In short: as §1

PDGFRb = PDGFRb (Homo sapiens, UniProt P09619); conditions: duplicate measurements, Km ATP
In short: as §1

PKG1b = biological target: T2, PKG1b (Homo sapiens, UniProt Q13976); conditions: duplicate measurements, Km ATP
T2 construct: gene PRKG1; isoform beta
In short: as §1

SGK3/SGKL = SGK3/SGKL (Homo sapiens, UniProt Q96BR1); conditions: duplicate measurements, Km ATP
In short: as §1

SSTK/TSSK6 = SSTK/TSSK6 (Homo sapiens, UniProt Q9BXA6); conditions: duplicate measurements, Km ATP
In short: as §1

TIE2/TEK = TIE2/TEK (Homo sapiens, UniProt Q02763); conditions: duplicate measurements, Km ATP
In short: as §1

TXK = TXK (Homo sapiens, UniProt P42681); conditions: duplicate measurements, Km ATP
In short: as §1

[1] = read-out: % Enzyme Activity (relative to DMSO controls) / TP-0005801 (0.3µM) / Data 1
[2] = read-out: % Enzyme Activity (relative to DMSO controls) / TP-0005801 (0.3µM) / Data 2

FLT1/VEGFR1, sequence (P17948 whole entry): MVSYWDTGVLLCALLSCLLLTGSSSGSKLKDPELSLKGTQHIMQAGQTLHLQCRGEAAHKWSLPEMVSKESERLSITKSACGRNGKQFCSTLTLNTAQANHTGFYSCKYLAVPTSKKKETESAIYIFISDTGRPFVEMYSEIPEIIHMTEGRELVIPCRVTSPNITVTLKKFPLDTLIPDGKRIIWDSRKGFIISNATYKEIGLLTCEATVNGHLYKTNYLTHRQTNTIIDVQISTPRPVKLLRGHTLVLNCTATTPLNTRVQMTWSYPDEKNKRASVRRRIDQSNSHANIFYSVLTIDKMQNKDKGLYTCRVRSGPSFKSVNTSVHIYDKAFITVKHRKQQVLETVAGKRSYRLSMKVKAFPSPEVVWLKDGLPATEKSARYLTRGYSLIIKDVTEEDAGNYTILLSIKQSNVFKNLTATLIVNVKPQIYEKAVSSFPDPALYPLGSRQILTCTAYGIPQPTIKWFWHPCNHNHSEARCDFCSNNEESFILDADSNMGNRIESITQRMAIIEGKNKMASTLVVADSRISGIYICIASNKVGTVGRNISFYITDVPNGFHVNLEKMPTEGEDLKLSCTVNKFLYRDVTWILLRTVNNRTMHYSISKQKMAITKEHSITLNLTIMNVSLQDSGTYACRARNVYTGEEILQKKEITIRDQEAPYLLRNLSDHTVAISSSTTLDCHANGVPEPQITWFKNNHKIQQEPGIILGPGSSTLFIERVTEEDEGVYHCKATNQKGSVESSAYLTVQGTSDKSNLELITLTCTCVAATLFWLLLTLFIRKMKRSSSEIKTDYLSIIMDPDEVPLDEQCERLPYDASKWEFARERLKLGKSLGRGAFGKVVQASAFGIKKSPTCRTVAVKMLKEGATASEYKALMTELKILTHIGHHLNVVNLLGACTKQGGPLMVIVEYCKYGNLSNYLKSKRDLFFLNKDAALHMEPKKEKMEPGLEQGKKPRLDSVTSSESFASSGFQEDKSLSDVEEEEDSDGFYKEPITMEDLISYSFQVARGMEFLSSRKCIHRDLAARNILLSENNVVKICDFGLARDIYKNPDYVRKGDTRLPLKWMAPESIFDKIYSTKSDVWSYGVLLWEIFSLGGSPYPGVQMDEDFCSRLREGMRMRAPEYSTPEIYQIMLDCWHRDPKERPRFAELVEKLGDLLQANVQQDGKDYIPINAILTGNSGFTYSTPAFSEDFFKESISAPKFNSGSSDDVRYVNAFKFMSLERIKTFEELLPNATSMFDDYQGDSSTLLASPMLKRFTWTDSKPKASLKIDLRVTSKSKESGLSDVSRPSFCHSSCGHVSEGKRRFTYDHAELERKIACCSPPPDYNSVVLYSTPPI
LIMK2, sequence (P53671 whole entry): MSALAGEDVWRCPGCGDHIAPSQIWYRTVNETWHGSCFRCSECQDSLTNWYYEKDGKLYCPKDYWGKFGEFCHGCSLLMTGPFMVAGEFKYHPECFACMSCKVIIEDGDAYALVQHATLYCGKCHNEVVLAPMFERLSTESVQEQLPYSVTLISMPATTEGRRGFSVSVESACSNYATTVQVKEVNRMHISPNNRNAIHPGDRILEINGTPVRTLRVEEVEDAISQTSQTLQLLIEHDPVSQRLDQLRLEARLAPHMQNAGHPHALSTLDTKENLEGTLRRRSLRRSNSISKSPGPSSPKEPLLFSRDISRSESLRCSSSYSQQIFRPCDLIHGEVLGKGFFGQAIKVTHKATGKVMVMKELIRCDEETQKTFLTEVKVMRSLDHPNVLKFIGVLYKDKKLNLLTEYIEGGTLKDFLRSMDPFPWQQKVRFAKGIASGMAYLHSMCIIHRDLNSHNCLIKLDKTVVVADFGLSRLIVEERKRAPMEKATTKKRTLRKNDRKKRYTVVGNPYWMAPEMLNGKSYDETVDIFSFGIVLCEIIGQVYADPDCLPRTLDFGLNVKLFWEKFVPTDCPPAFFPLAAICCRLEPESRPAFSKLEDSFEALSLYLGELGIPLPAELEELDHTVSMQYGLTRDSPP
SSTK/TSSK6, sequence (Q9BXA6 whole entry): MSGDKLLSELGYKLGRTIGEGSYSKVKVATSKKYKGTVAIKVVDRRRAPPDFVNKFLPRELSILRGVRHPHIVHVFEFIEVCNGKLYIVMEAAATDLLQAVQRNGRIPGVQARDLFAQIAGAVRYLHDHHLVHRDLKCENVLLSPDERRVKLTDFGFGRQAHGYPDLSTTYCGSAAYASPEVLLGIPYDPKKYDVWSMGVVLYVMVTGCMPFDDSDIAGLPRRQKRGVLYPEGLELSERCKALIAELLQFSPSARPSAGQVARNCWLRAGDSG
SGK3/SGKL, sequence (Q96BR1 whole entry): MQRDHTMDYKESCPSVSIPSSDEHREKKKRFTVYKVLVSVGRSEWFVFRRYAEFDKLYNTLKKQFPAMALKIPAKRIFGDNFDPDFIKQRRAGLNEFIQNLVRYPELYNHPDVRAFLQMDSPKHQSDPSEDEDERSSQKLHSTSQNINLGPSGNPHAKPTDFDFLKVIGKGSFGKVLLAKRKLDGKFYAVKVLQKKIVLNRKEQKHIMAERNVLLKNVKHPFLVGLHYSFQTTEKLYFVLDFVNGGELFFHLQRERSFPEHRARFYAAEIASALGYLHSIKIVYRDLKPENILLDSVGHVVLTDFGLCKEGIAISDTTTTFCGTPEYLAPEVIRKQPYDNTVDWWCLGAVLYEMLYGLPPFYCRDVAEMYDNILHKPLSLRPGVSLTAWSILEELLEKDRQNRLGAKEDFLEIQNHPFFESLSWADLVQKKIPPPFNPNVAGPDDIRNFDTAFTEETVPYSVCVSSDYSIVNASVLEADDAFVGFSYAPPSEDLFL
PDGFRb, sequence (P09619 whole entry): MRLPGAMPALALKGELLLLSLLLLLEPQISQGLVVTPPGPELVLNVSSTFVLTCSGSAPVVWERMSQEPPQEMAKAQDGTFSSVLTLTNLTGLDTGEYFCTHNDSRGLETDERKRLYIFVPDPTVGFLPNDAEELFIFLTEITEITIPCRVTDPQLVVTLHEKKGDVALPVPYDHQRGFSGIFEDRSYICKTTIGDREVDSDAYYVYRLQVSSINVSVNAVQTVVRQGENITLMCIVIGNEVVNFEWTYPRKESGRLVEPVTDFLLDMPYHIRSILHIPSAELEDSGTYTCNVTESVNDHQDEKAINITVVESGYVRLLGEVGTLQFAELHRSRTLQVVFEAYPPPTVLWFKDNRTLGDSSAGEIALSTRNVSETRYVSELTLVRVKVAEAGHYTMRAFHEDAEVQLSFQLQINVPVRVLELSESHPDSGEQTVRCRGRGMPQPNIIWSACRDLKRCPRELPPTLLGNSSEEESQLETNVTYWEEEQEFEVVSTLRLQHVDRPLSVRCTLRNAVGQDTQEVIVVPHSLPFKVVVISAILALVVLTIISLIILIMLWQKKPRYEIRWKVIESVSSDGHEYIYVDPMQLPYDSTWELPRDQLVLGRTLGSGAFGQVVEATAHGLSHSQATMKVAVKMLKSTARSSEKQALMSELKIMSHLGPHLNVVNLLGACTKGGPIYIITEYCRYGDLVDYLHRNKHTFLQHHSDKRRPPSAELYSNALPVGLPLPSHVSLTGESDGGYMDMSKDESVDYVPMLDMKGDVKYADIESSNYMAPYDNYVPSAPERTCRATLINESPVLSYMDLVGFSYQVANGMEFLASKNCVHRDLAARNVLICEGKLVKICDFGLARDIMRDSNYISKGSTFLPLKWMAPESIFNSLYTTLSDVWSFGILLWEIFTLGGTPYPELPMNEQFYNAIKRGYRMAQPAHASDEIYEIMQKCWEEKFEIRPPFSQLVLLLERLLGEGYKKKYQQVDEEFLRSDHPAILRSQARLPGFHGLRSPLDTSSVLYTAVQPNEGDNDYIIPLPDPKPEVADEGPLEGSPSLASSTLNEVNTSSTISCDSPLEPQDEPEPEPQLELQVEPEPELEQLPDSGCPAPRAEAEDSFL
TIE2/TEK, sequence (Q02763 whole entry): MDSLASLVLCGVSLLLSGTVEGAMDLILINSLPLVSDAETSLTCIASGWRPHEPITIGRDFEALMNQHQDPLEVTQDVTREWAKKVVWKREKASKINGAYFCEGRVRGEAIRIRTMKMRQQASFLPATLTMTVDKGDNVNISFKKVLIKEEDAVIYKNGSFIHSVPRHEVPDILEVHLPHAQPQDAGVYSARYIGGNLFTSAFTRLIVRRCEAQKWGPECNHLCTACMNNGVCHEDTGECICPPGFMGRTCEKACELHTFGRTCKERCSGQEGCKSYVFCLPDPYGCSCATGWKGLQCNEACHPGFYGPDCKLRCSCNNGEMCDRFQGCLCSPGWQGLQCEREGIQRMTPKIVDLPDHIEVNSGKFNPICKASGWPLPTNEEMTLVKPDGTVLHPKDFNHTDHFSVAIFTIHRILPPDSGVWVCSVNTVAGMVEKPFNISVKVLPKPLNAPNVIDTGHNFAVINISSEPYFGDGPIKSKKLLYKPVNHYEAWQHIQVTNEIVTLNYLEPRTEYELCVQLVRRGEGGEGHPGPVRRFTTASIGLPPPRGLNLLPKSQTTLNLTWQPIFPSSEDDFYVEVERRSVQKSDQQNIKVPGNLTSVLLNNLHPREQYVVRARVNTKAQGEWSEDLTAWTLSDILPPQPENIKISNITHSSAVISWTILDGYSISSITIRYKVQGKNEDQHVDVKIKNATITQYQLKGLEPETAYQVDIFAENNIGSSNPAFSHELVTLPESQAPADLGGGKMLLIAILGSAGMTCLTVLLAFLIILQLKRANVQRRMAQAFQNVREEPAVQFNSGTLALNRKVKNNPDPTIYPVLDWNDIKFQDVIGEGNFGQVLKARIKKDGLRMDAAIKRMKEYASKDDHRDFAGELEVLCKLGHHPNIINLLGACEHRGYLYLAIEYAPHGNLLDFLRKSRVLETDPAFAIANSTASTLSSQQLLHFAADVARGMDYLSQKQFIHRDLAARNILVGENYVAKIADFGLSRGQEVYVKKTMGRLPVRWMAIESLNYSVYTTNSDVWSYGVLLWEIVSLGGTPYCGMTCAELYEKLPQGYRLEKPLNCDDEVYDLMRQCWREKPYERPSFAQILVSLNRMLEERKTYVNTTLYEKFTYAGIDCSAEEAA

COc1cc(N2CCN(C)CC2)c(C)cc1Nc1ncc(Br)c(Nc2cccnc2N(C)C)n1 [TP-5801]
remaining activity at 0.3 µM (ABL2/ARG; [1]): 93.2% | remaining activity at 0.3 µM (ABL2/ARG; [2]): 91.6% | remaining activity at 0.3 µM (CAMK2a; [1]): 8.85% | remaining activity at 0.3 µM (CAMK2a; [2]): 8.25% | remaining activity at 0.3 µM (CAMK2g; [1]): 157% | remaining activity at 0.3 µM (CAMK2g; [2]): 153% | remaining activity at 0.3 µM (CDK19/cyclin C; [1]): 54.8% | remaining activity at 0.3 µM (CDK19/cyclin C; [2]): 54.1% | remaining activity at 0.3 µM (CTK/MATK; [1]): 108% | remaining activity at 0.3 µM (CTK/MATK; [2]): 106% | remaining activity at 0.3 µM (DDR1; [1]): 74.4% | remaining activity at 0.3 µM (DDR1; [2]): 74.1% | remaining activity at 0.3 µM (EPHA6; [1]): 103% | remaining activity at 0.3 µM (EPHA6; [2]): 98.6% | remaining activity at 0.3 µM (FES/FPS; [1]): 18.2% | remaining activity at 0.3 µM (FES/FPS; [2]): 17.6% | remaining activity at 0.3 µM (FLT1/VEGFR1; [1]): 96.8% | remaining activity at 0.3 µM (FLT1/VEGFR1; [2]): 96.2% | remaining activity at 0.3 µM (LIMK2; [1]): 114% | remaining activity at 0.3 µM (LIMK2; [2]): 108% | remaining activity at 0.3 µM (MAPKAPK2; [1]): 99% | remaining activity at 0.3 µM (MAPKAPK2; [2]): 96.4% | remaining activity at 0.3 µM (MEKK6; [1]): 95.3% | remaining activity at 0.3 µM (MEKK6; [2]): 95.2% | remaining activity at 0.3 µM (MINK/MINK1; [1]): 95.6% | remaining activity at 0.3 µM (MINK/MINK1; [2]): 89.2% | remaining activity at 0.3 µM (PAK2): 104% | remaining activity at 0.3 µM (PDGFRb; [1]): 64.4% | remaining activity at 0.3 µM (PDGFRb; [2]): 64% | remaining activity at 0.3 µM (PKG1b; [1]): 51% | remaining activity at 0.3 µM (PKG1b; [2]): 50% | remaining activity at 0.3 µM (SGK3/SGKL; [1]): 108% | remaining activity at 0.3 µM (SGK3/SGKL; [2]): 105% | remaining activity at 0.3 µM (SSTK/TSSK6; [1]): 111% | remaining activity at 0.3 µM (SSTK/TSSK6; [2]): 107% | remaining activity at 0.3 µM (TIE2/TEK; [1]): 83.6% | remaining activity at 0.3 µM (TIE2/TEK; [2]): 80.7% | remaining activity at 0.3 µM (TXK; [1]): 114% | remaining activity at 0.3 µM (TXK; [2]): 112%
